Laboratory results as given in patent US4649150A, “Antiulcerogenic amidine derivatives of 2-substituted 4-phenylimidazole” (Istituto de Angeli, S.p.A., priority 1983, dated 1987).
Read-outs that look alike come from different tables or passages of the source.

Tests used:
histamine H2 -receptors = target: T1, histamine H2 -receptors (Cavia porcellus, UniProt P47747); assay: In vitro inhibitory activity in histamine-induced tachycardia (guinea pig atria); inhibition of the histamine-evoked positive chronotropic effect; details: isolated guinea pig atria, Krebs-Henseleit pH 7.4, 32° C., histamine 10^-6 g.ml^-1, 30 minutes; read-out: EC50 (average effective concentration of the H2-antagonists, inhibition of histamine-induced tachycardia)
T1 construct: isolated guinea pig atria suspended in an organ bath; from tissue; host or cells: isolated guinea pig atria
Method: The myocardial preparation, loaded with 1 g isometric tension, was allowed to stabilize for 60 minutes, and myocardial contractions were recorded through an isometric lever connected to a strain-gauge coupler, and the instantaneous rate was monitored with a cardiotachometer and a heat-writing pen recorder. After two control responses to histamine (10^-6 g.ml^-1) the test compounds were added to the bath at the desired final concentration and left for 30 minutes before the atria were again challenged with histamine. The chronotropic response obtained in the presence of the antagonist was then compared to the control response to histamine, and the percent reduction of the histamine H2 -evoked response was calculated. […] 3, Smooth muscle, Ed. Daniel E. E. Paton, M., Plenum Press. New York (1975); Ash and Schild, Br. J. Pharmacol. Chemother. 27, 427-439, 1966.

[1] = test system: histamine-induced gastric secretion of acid; assay: In vivo antisecretory activity in histamine-induced gastric secretion (stomach perfused rat); details: iv, read-out: ED50 (histamine-induced gastric secretion)
Source text: The ability of the test compounds to inhibit histamine-induced gastric secretion of acid was investigated after intravenous or intraduodenal administration in stomach perfused rats, according to Gosh and Schild [Br. J. Pharmacol. Chemother. 13, 54 (1958)]. The preparation of the animals in general anesthesia (urethane 1 g.kg^-1 i.p.) and constant temperature was achieved by inserting and tying in place polyethyl tubes (PE 50) in the esophagus and in the pyloric-antral region. After the stomach was washed to remove residuals of food, continuous perfusion of the stomach was started with saline, 0.5 ml.min^-1 (37° C.), primed by a Jobling peristaltic pump. After 30 minutes of perfusion adaptation, samples of the stomach perfusate were collected at 30 min. intervals and titrated for acid content, expressed as μEq of 1N NaOH. As control acid output became constant, intravenous perfusion of histamine (1 mg.kg^-1hr^-1) was started and maintained throughout the experimental period. After the acid secretion had reached the steadily higher level, increasing doses of the test compound were injected intravenously in order to obtain dose-response functions. The ED50 was then calculated by standard procedure.

[2] = stomach perfused rat, urethane anesthesia, histamine 1 mg.kg^-1hr^-1 i.v., values expressed taking the compound as a base

T1 sequence (P47747 whole entry): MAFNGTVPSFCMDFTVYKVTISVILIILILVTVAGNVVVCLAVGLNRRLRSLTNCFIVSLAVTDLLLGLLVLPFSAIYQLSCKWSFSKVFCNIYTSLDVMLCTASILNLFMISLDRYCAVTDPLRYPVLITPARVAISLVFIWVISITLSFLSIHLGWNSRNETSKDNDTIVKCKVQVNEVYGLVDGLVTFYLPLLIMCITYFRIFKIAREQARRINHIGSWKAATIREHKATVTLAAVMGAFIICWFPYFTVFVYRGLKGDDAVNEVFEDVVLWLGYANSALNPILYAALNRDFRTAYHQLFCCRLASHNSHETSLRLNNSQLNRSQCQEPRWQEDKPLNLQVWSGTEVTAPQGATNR

SMILES	EC50 (histamine H2 -receptors) [µM]	ED50 [1, 2] [mg/kg]	ED50 ([1]; Rattus norvegicus) [mg/kg]
CC(C)NC=Nc1ccc(-c2c[nH]c(O)n2)cc1 [16 (aa), N-Isopropyl-N'-[4-(2-hydroxy-imidazol-4-yl)phenyl]-formamidine]	0.194	0.065	
CN/C(=N/CCSCc1nc[nH]c1C)NC#N [Cimetidine, reference compound]			0.56
C=CCNC=Nc1ccc(-c2c[nH]c(C)n2)cc1 [16 (c), N-Allyl-N'-[4-(2-methyl-imidazol-4-yl)phenyl]-formamidine]	0.12	0.025	
Cc1nc(-c2ccc(N=CNC(C)C)cc2)c[nH]1 [16 (b), N-Isopropyl-N'-[4-(2-methyl-imidazol-4-yl)phenyl]-formamidine]	0.18	0.067	
Cc1nc(-c2ccc(N=CNC(C)(C)C)cc2)c[nH]1 [Example 17, N-tert.Butyl-N'-[4-(2-methyl-imidazol-4-yl)phenyl]-formamidine]	0.4	0.08	
CCNC=Nc1ccc(-c2c[nH]c(C)n2)cc1 [16 (a), N-Ethyl-N'-[4-(2-methyl-imidazol-4-yl)phenyl]-formamidine]	0.15	0.032	
